Test results: article PMC5224920, “Assessing the mechanism and therapeutic potential of modulators of the human Mediator complex-associated protein kinases” (eLife, 2016)

Test system: 12 single or co-culture in vitro tissue models of primary cells
Experiment: Culture/co-culture cell model panel, extracellular biomarkers (DiscoveRx); for CCL2/MCP-1: reference of the scale not given here; for CXCL8/IL-8: reference of the scale not given here; for CXCL9/MIG: reference of the scale not given here; for IL-1alpha: reference of the scale not given here; for M-CSF: reference of the scale not given here; for PBMC Cytotoxicity: reference of the scale not given here; for SRB: reference of the scale not given here; for sTNF-alpha: reference of the scale not given here
Format: cell-based, human
Settings: for B cell Proliferation / PBMC Cytotoxicity / Secreted IgG / sIL-2 / sIL-6 / sIL-17A / sIL-17F / sTNF-alpha: BT
[1] = HDF3CGF stimulated fibroblasts, 1.00E0 nM
[2] = HDF3CGF stimulated fibroblasts, 1.00E1 nM
[3] = HDF3CGF stimulated fibroblasts, 1.00E2 nM
[4] = HDF3CGF stimulated fibroblasts, 1.00E3 nM

## Cn1ncc2cc(-c3cnc(N)c(Cl)c3N3CCC4(CCNC4=O)CC3)ccc21 [CMPD 3]
BENo, 1.00E3 nM
  SRB: 0.000914
  tPA: -0.008
  uPA: 0.00377
BENo, 1.00E4 nM
  CCL26/Eotaxin-3: 0.042
  CD54/ICAM-1: 0.016
  CD87/uPAR: 0.038
  CXCL8/IL-8: 0.023
  CXCL9/MIG: 0.059
  CXCL10/IP-10: 0.042
  CXCL11/I-TAC: 0.073
  EGFR: 0.00756
  HLA-DR: 0.014
  IL-1alpha: -0.053
  Keratin 8/18: 0.041
  MMP-1: -0.026
  MMP-9: 0.010
  PAI-I: -0.144
  SRB: -0.006
  tPA: 0.015
  uPA: -0.00171
BF4T, 1.00E0 nM
  CCL2/MCP-1: -0.034
  CCL26/Eotaxin-3: -0.012
  CD54/ICAM-1: 0.007
  CD90: -0.021
  CD106/VCAM-1: 0.067
  CXCL8/IL-8: 0.013
  IL-1alpha: 0.00747
  Keratin 8/18: 0.00256
  MMP-1: 0.013
  MMP-3: 0.056
  MMP-9: 0.030
  PAI-I: 0.049
  SRB: 0.00349
  tPA: 0.039
  uPA: 0.035
BF4T, 1.00E1 nM
  CCL2/MCP-1: -0.011
  CCL26/Eotaxin-3: -0.071
  CD54/ICAM-1: -0.035
  CD90: 0.005
  CD106/VCAM-1: -0.00425
  CXCL8/IL-8: 0.046
  IL-1alpha: 0.008
  Keratin 8/18: 0.009
  MMP-1: -0.00365
  MMP-3: 0.023
  MMP-9: 0.007
  PAI-I: -0.00638
  SRB: 0.000434
  tPA: 0.032
  uPA: -0.000167
BF4T, 1.00E2 nM
  CCL2/MCP-1: -0.034
  CCL26/Eotaxin-3: -0.085
  CD54/ICAM-1: -0.034
  CD90: 0.00329
  CD106/VCAM-1: -0.010
  CXCL8/IL-8: 0.040
  IL-1alpha: -0.00155
  Keratin 8/18: 0.017
  MMP-1: -0.009
  MMP-3: 0.032
  MMP-9: -0.020
  PAI-I: -0.00143
  SRB: 0.00276
  tPA: 0.041
  uPA: 0.017
BF4T, 1.00E3 nM
  CCL2/MCP-1: -0.042
  CCL26/Eotaxin-3: -0.098
  CD54/ICAM-1: -0.035
  CD90: 0.00842
  CD106/VCAM-1: -0.023
  CXCL8/IL-8: 0.030
  IL-1alpha: -0.009
  Keratin 8/18: 0.034
  MMP-1: 0.000873
  MMP-3: 0.030
  MMP-9: -0.009
  PAI-I: 0.022
  SRB: 0.00179
  tPA: 0.045
  uPA: 0.019
BF4T, 1.00E4 nM
  CCL2/MCP-1: -0.010
  CCL26/Eotaxin-3: -0.092
  CD54/ICAM-1: -0.042
  CD90: 0.017
  CD106/VCAM-1: 0.005
  CXCL8/IL-8: 0.022
  IL-1alpha: -0.002
  Keratin 8/18: 0.038
  MMP-1: 0.00226
  MMP-3: 0.073
  MMP-9: 0.010
  PAI-I: 0.013
  SRB: 0.000467
  tPA: 0.028
  uPA: -0.035
1.00E0 nM
  B cell Proliferation: 0.00438
  PBMC Cytotoxicity: 0.034
  Secreted IgG: -0.074
  sIL-2: 0.110
  sIL-6: 0.008
  sIL-17A: 0.110
  sIL-17F: -0.037
  sTNF-alpha: 0.089
1.00E1 nM
  B cell Proliferation: -0.011
  PBMC Cytotoxicity: -0.016
  Secreted IgG: 0.026
  sIL-2: 0.017
  sIL-6: -0.016
  sIL-17A: 0.095
  sIL-17F: -0.399
  sTNF-alpha: -0.021
1.00E2 nM
  B cell Proliferation: -0.056
  PBMC Cytotoxicity: -0.027
  Secreted IgG: -0.165
  sIL-2: 0.084
  sIL-6: 0.046
  sIL-17A: 0.184
  sIL-17F: -0.384
  sTNF-alpha: 0.022
1.00E3 nM
  B cell Proliferation: -0.058
  PBMC Cytotoxicity: -0.050
  Secreted IgG: -0.370
  sIL-2: -0.083
  sIL-6: -0.147
  sIL-17A: 0.263
  sIL-17F: -0.522
  sTNF-alpha: -0.114
1.00E4 nM
  B cell Proliferation: -0.233
  PBMC Cytotoxicity: -0.092
  Secreted IgG: -0.611
  sIL-2: -0.213
  sIL-6: -0.493
  sIL-17A: 0.164
  sIL-17F: -0.874
  sTNF-alpha: -0.249
[1]
  CCL2/MCP-1: -0.000698
  CD54/ICAM-1: 0.022
  CD106/VCAM-1: -0.007
  CXCL8/IL-8: -0.00379
  CXCL9/MIG: 0.00441
  CXCL10/IP-10: 0.006
  CXCL11/I-TAC: 0.016
  Collagen I: 0.078
  Collagen III: 0.045
  EGFR: 0.070
  M-CSF: 0.015
  MMP-1: 0.046
  PAI-I: 0.072
  Proliferation_72hr: -0.019
  SRB: -0.009
  TIMP-1: 0.031
  TIMP-2: 0.091
[2]
  CCL2/MCP-1: -0.016
  CD54/ICAM-1: -0.00318
  CD106/VCAM-1: 0.013
  CXCL8/IL-8: -0.026
  CXCL9/MIG: -0.00175
  CXCL10/IP-10: 0.035
  CXCL11/I-TAC: -0.00346
  Collagen I: 0.095
  Collagen III: 0.043
  EGFR: -0.010
  M-CSF: -0.053
  MMP-1: 0.052
  PAI-I: -0.000592
  Proliferation_72hr: -0.139
  SRB: -0.015
  TIMP-1: -0.019
  TIMP-2: 0.138
[3]
  CCL2/MCP-1: -0.095
  CD54/ICAM-1: -0.046
  CD106/VCAM-1: 0.00848
  CXCL8/IL-8: -0.030
  CXCL9/MIG: -0.053
  CXCL10/IP-10: 0.038
  CXCL11/I-TAC: -0.019
  Collagen I: 0.072
  Collagen III: 0.069
  EGFR: -0.024
  M-CSF: -0.078
  MMP-1: 0.030
  PAI-I: -0.00555
  Proliferation_72hr: -0.249
  SRB: -0.018
  TIMP-1: -0.057
  TIMP-2: 0.140
[4]
  CCL2/MCP-1: -0.140
  CD54/ICAM-1: -0.051
  CD106/VCAM-1: 0.034
  CXCL8/IL-8: -0.084
  CXCL9/MIG: -0.075
  CXCL10/IP-10: 0.033
  CXCL11/I-TAC: -0.016
  Collagen I: 0.079
  Collagen III: 0.097
